Like-named read-outs stand apart in the source and are kept apart here.
Target: PKM2 (Homo sapiens, UniProt P14618)
Experiment: PKM2 Biochemical Assay
Conditions: for Max. Resp.: % maximum response in a biochemical assay as compared with Fructose 1,6-bisphosphate
[1] = read-out: PKM2 AC50, 2 nM PKM2, 75 μM ADP, 15 μM PEP, Kinase Glo

Chain of PKM2 (P14618 whole entry): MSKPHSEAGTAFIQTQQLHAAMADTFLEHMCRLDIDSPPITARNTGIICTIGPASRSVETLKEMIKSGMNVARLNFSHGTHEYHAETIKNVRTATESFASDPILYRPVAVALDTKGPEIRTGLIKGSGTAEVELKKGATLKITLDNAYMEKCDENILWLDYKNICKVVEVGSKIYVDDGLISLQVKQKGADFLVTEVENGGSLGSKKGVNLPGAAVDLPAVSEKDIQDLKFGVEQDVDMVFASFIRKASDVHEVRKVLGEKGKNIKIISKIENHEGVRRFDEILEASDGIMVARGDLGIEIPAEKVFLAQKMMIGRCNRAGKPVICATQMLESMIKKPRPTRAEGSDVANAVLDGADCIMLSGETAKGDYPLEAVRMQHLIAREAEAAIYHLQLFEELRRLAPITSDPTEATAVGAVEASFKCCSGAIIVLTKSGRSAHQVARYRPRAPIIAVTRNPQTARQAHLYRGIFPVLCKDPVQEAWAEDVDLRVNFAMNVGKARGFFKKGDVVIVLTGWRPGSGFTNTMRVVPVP

Structure (SMILES)	Max. Resp. [%]	AC50 [nM]	AC50 [1] [nM]
N#Cc1cc(C(=O)N(Cc2ccc(O)cc2F)CC2CCC2)[nH]n1 [Example 2, 3-CYANO-N-(CYCLOBUTYLMETHYL)-N-(2-FLUORO-4-HYDROXYBENZYL)-1H-PYRAZOLE-5-CARBOXAMIDE]	39		
Nc1cc(C(=O)N(Cc2ccc(O)cc2F)CC2CCC2)[nH]n1 [Example 3, 3-amino-N-(cyclobutylmethyl)-N-(2-fluoro-4-hydroxybenzyl)-1H-pyrazole-5-carboxamide]	45		
CC(c1ccccc1)N(CC1CCC1)C(=O)c1cc(Br)n[nH]1 (stereo not shown) [Example 4, 3-bromo-N-(cyclobutylmethyl)-N-(1-phenylethyl)-1H-pyrazole-5-carboxamide]	52	1480	
CC(c1ccccc1)N(CC1CCC1)C(=O)c1cc(C(F)(F)F)n[nH]1 (stereo not shown) [Example 5, 3-trifluoromethyl-N-(cyclobutylmethyl)-N-(1-phenylethyl)-1H-pyrazole-5-carboxamide]	106		
O=C(c1cc(C(F)(F)F)n[nH]1)N(Cc1cccc2[nH]ccc12)CC1CCC1 [Example 6, N-((1H-indol-4-yl)methyl)-N-(cyclobutylmethyl)-3-(trifluoromethyl)-1H-pyrazole-5-carboxamide]	100		213
O=C(c1cc(Cl)n[nH]1)N(Cc1cccc2[nH]c(=O)sc12)CC1CCC1 [Example 9, 3-Chloro-N-(cyclobutylmethyl)-N-((2-oxo-2,3-dihydrobenzo[d]thiazol-7-yl)methyl)-1H-pyrazole-5-carboxamide]	80		
O=C(c1cc(Br)n[nH]1)N(Cc1cccc2[nH]c(=O)sc12)CC1CCC1 [Example 10, 3-bromo-N-(cyclobutylmethyl)-N-((2-oxo-2,3-dihydrobenzo[d]thiazol-7-yl)methyl)-1H-pyrazole-5-carboxamide]	127		
O=C(c1cc(Br)n[nH]1)N(Cc1ccc(O)cc1F)CC1CNC1 [Example 11, N-(azetidin-3-ylmethyl)-3-bromo-N-(2-fluoro-4-hydroxybenzyl)-1H-pyrazole-5-carboxamide]	61		
O=C(c1cc(C(F)(F)F)n[nH]1)N(Cc1cccc2[nH]ccc12)CC1COC1 [Example 12]	101		
CC(C)(C)CN(Cc1cccc2[nH]ccc12)C(=O)c1cc(C(F)(F)F)n[nH]1 [Example 13]	33		
O=C(c1cc(C(F)(F)F)n[nH]1)N(Cc1cccc2c1CCN2)CC1CCC1 [Example 14, N-(cyclobutylmethyl)-N-(indolin-4-ylmethyl)-3-(trifluoromethyl)-1H-pyrazole-5-carboxamide]	81		1700
O=C(c1cc(C(F)(F)F)n[nH]1)N(Cc1ccc(O)cc1F)CC1COC1 [Example 15]	102		
CCCC(C)N(Cc1ccccc1)C(=O)c1cc(C(F)(F)F)n[nH]1 (stereo not shown) [Example 16]	22		
CCCCCN(Cc1ccccc1)C(=O)c1cc(C(F)(F)F)n[nH]1 [Example 19]	76		
O=C(c1cc(C(F)(F)F)n[nH]1)N(Cc1ccccc1F)CC1COC1 [Example 20]	70		
COCCCN(Cc1ccccc1F)C(=O)c1cc(C(F)(F)F)n[nH]1 [Example 23]	75		
CCOCCN(Cc1ccc(O)cc1F)C(=O)c1cc(C(F)(F)F)n[nH]1 [Example 24]	100		
O=C(c1cc(C(F)(F)F)n[nH]1)N(Cc1ccccc1F)c1ncco1 [Example 25]	35		
O=C(c1cc(C(F)(F)F)n[nH]1)N(CCC1CCOC1)Cc1ccccc1F (stereo not shown) [Example 26]	99		
O=C(c1cc(C(F)(F)F)n[nH]1)N(Cc1ccccc1Cl)CC1COC1 [Example 27]	47		
COCCCN(Cc1ccccc1Cl)C(=O)c1cc(C(F)(F)F)n[nH]1 [Example 29]	87	4640	
COCCCN(Cc1ccccc1F)C(=O)c1cc(C(F)(F)F)n[nH]1 [Example 30]	72	9770	
COCCCN(Cc1ccccc1Cl)C(=O)c1cc(C(F)(F)F)n[nH]1 [Example 31]	82		
O=C(c1cc(C(F)(F)F)n[nH]1)N(CCC1CCOCC1)Cc1ccccc1Cl [Example 32]	107		

Structure (SMILES)	Max. Resp. [%]	AC50 [nM]	AC50 [1] [nM]
O=C(c1cc(C(F)(F)F)n[nH]1)N(CCC1CCOC1)Cc1c(Cl)cccc1Cl (stereo not shown) [Example 33]	81		
O=C(c1cc(C(F)(F)F)n[nH]1)N(CCC1CCOC1)Cc1ccc(O)cc1F (stereo not shown) [Example 34]	109		
O=C(c1cc(C(F)(F)F)n[nH]1)N(Cc1ccccc1Cl)C1CCOCC1 [Example 35]	59		
O=C(c1cc(C(F)(F)F)n[nH]1)N(CCC1CCCOC1)Cc1ccccc1Cl (stereo not shown) [Example 36]	88		
CC(C)OCCN(Cc1ccccc1Cl)C(=O)c1cc(C(F)(F)F)n[nH]1 [Example 37]	37		
CCOCCCN(Cc1ccccc1Cl)C(=O)c1cc(C(F)(F)F)n[nH]1 [Example 38]	47		
O=C(c1cc(C(F)(F)F)n[nH]1)N(CCOC1CCCC1)Cc1ccccc1F [Example 39]	30		
O=C(c1cc(C(F)(F)F)n[nH]1)N(CCC1CCOC1)Cc1c(F)cccc1F (stereo not shown) [Example 40]	114		
O=C(c1cc(C(F)(F)F)n[nH]1)N(CCC1CCOCC1)Cc1ccccc1F [Example 41]	118		
CCOCCN(Cc1c(Cl)cccc1Cl)C(=O)c1cc(C(F)(F)F)n[nH]1 [Example 42]	76		
O=C(c1cc(C(F)(F)F)n[nH]1)N(CCC1CCOC1)Cc1ccccc1Cl (stereo not shown) [Example 43]	110		
O=C(c1cc(C(F)(F)F)n[nH]1)N(CCC1CCCCO1)Cc1ccccc1Cl (stereo not shown) [Example 44]	32		
O=C(c1cc(C(F)(F)F)n[nH]1)N(Cc1ccccc1F)CC1CCOCC1 [Example 45]	52		
O=C(c1cc(C(F)(F)F)n[nH]1)N(CCC1CCCO1)Cc1ccccc1F (stereo not shown) [Example 46]	70		
CO[C@H]1CC[C@H](N(Cc2cccc(F)c2)C(=O)c2cc(C(F)(F)F)n[nH]2)CC1 [Example 48]	80		
CO[C@H]1CC[C@H](N(Cc2c(F)cccc2F)C(=O)c2cc(C(F)(F)F)n[nH]2)CC1 [Example 49]	122		
CO[C@H]1CC[C@H](N(Cc2cc(F)ccc2F)C(=O)c2cc(C(F)(F)F)n[nH]2)CC1 [Example 50]	90		
CO[C@H]1CC[C@H](N(Cc2cc(F)cc(F)c2)C(=O)c2cc(C(F)(F)F)n[nH]2)CC1 [Example 51]	31		
CO[C@H]1CC[C@H](N(Cc2ccccc2Cl)C(=O)c2cc(C(F)(F)F)n[nH]2)CC1 [Example 52]	100		
CC(C)O[C@H]1CC[C@H](N(Cc2ccccc2Cl)C(=O)c2cc(C(F)(F)F)n[nH]2)CC1 [Example 53]	63		
CCO[C@H]1CC[C@H](N(Cc2ccccc2F)C(=O)c2cc(C(F)(F)F)n[nH]2)CC1 [Example 55]	101		
CO[C@H]1CC[C@H](N(Cc2ncccc2Cl)C(=O)c2cc(C(F)(F)F)n[nH]2)CC1 [Example 56]	48		
O=C(c1cc(C(F)(F)F)n[nH]1)N(CCC1CCC2(CC1)OCCO2)Cc1ccccc1F [Example 59, N-(2-(1,4-dioxaspiro[4.5]decan-8-yl)ethyl)-N-(2-fluorobenzyl)-3-(trifluoromethyl)-1H-pyrazole-5-carboxamide]	100		

Reference: patent US10766865B2, “PKM2 modulators and methods for their use” (TOLERO PHARMACEUTICALS, INC., priority 2012, dated 2020)
